# According to PubChem BioAssay AID1671221:
# Target: Tyrosine-protein kinase Blk (Homo sapiens) (UniProt P51451)
# Test: BLK kinase inhibitors, dose response, biochemical, Z'-LYTE FRET, direct format, recombinant human (AID 1671221)
# Conditions: Z'-LYTE FRET peptide phosphorylation
# Tyrosine-protein kinase Blk (Homo sapiens), sequence (P51451 whole entry, looked up): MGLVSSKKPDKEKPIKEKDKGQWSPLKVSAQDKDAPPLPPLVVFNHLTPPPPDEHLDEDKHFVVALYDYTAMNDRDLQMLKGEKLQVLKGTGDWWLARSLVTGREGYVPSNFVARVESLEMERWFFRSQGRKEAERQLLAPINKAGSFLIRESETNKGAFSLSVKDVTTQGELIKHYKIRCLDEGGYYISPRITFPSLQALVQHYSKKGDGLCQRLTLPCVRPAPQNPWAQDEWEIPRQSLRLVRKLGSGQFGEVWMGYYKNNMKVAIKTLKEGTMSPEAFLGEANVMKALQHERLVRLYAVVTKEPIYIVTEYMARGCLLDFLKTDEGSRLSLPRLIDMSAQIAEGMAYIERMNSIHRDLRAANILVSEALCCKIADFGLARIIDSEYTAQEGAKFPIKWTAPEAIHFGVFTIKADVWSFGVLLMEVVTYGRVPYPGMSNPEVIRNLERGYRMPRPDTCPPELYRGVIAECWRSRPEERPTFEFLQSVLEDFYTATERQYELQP
smiles,measurement,value
COc1cc2ncnc(Nc3cccc(Cl)c3)c2cc1OC,IC50,1.16 µM
